This is an account of results in PMC7054845 (Journal of medicinal chemistry, 2019).

For this assay, the system named is hMMP-12. The assay can be described thus: hMMP-12 inhibition assay in diluted mouse plasma. The assay is classed as biochemical, human. Particulars: mouse plasma versus buffer.

For the compound `NC(=O)[C@H](CCC(=O)O)NC(=O)[C@H](CCC(=O)O)NC(=O)[C@H](Cc1cc(-c2ccc(-c3cccc(Cl)c3)cc2)no1)CP(=O)(O)c1ccc(Br)cc1` [RXP470.1], the “drop in affinity towards hMMP-12 in mouse plasma (factor)” value was 470.
